Source: patent US12077503B2, “Substituted cyclic amides and their use as herbicides” (FMC CORPORATION, priority 2015, dated 2024)

Experiments:
Format in all cases: in vivo
Kochia (Kochia scoparia) [1] = experiment: Test A postemergence
Description: (§1) Seeds of plant species selected from barnyardgrass (Echinochloa crus-galli), Kochia (Kochia scoparia), ragweed (common ragweed, Ambrosia elatior), ryegrass, Italian (Italian ryegrass, Lolium multiflorum), crabgrass, large (Digitaria sanguinalis), giant foxtail (Setaria faberii), green foxtail (Setaria viridis), morningglory (Ipomoea spp.), pigweed (Amaranthus retroflexus), velvetleaf (Abutilon theophrasti), wheat (Triticum aestivum), and corn (Zea mays) were planted into a blend of loam soil and sand and treated preemergence with a directed soil spray using test chemicals formulated in anon-phytotoxic solvent mixture which included a surfactant.
(§2) At the same time, plants selected from these crop and weed species and also blackgrass (Alopecurus myosuroides), and Galium (catchweed bedstraw, Galium aparine) were planted in pots containing the same blend of loam soil and sand and treated with postemergence applications of test chemicals formulated in the same manner. Plants ranged in height from 2 to 10 cm and were in the one- to two-leaf stage for the postemergence treatment. Treated plants and untreated controls were maintained in a greenhouse for approximately 10 d, after which time all treated plants were compared to untreated controls and visually evaluated for injury. Plant response ratings, summarized in Table A, are based on a 0 to 100 scale where 0 is no effect and 100 is complete control. A dash (-) response means no test result.

[2] = system: barnyardgrass (Echinochloa crus-galli); experiment: Test A postemergence
Description: as §1, §2

[3] = system: pigweed (Amaranthus retroflexus); experiment: Test A postemergence
Description: as §1, §2

[4] = system: ryegrass, Italian (Italian ryegrass, Lolium multiflorum); experiment: Test A postemergence
Description: as §1, §2

[5] = system: ragweed (common ragweed, Ambrosia elatior); experiment: Test A postemergence
Description: as §1, §2

corn (Zea mays) = experiment: Test A postemergence
Description: as §1, §2

[6] = system: giant foxtail (Setaria faberii); experiment: Test A postemergence
Description: as §1, §2

[7] = system: blackgrass (Alopecurus myosuroides); experiment: Test A postemergence
Description: as §1, §2

[8] = system: wheat (Triticum aestivum); experiment: Test A postemergence
Description: as §1, §2

[9] = system: Galium (catchweed bedstraw, Galium aparine); experiment: Test A postemergence
Description: as §1, §2

Kochia (Kochia scoparia) [10] = experiment: Test A preemergence; conditions: Preemergence; for Plant response rating, Kochia: 125 g ai/ha, visual injury after approximately 10 d, 0 to 100 scale where 0 is no effect and 100 is complete control; for Kochia plant response rating (0 to 100 scale, 0 is no effect, 100 is complete control): 500 g ai/ha, visual injury approx. 10 d
Description: as §1, §2

[11] = system: barnyardgrass (Echinochloa crus-galli); experiment: Test A preemergence; conditions: Preemergence; for Plant response rating, Barnyardgrass: 125 g ai/ha, visual injury after approximately 10 d, 0 to 100 scale where 0 is no effect and 100 is complete control; for Barnyardgrass plant response rating (0 to 100 scale, 0 is no effect, 100 is complete control): 500 g ai/ha, visual injury approx. 10 d
Description: as §1, §2

[12] = system: pigweed (Amaranthus retroflexus); experiment: Test A preemergence; conditions: Preemergence; for Plant response rating, Pigweed: 125 g ai/ha, visual injury after approximately 10 d, 0 to 100 scale where 0 is no effect and 100 is complete control; for Pigweed plant response rating (0 to 100 scale, 0 is no effect, 100 is complete control): 500 g ai/ha, visual injury approx. 10 d
Description: as §1, §2

[13] = system: ryegrass, Italian (Italian ryegrass, Lolium multiflorum); experiment: Test A preemergence; conditions: Preemergence; for Plant response rating, Ryegrass, Italian: 125 g ai/ha, visual injury after approximately 10 d, 0 to 100 scale where 0 is no effect and 100 is complete control; for Ryegrass, Italian plant response rating (0 to 100 scale, 0 is no effect, 100 is complete control): 500 g ai/ha, visual injury approx. 10 d
Description: as §1, §2

[14] = system: ragweed (common ragweed, Ambrosia elatior); experiment: Test A preemergence; conditions: Preemergence; for Plant response rating, Ragweed: 125 g ai/ha, visual injury after approximately 10 d, 0 to 100 scale where 0 is no effect and 100 is complete control; for Ragweed plant response rating (0 to 100 scale, 0 is no effect, 100 is complete control): 500 g ai/ha, visual injury approx. 10 d
Description: as §1, §2

[15] = system: giant foxtail (Setaria faberii); experiment: Test A preemergence; conditions: Preemergence; for Plant response rating, Foxtail, Giant: 125 g ai/ha, visual injury after approximately 10 d, 0 to 100 scale where 0 is no effect and 100 is complete control; for Foxtail, Giant plant response rating (0 to 100 scale, 0 is no effect, 100 is complete control): 500 g ai/ha, visual injury approx. 10 d
Description: as §1, §2

[16] = 125 g ai/ha, postemergence, visual rating after approx. 10 d, 0 to 100 scale (0 no effect, 100 complete control)
[17] = Postemergence, 500 g ai/ha, 0 to 100 scale where 0 is no effect and 100 is complete control

Compound | Plant response rating, Kochia (Kochia (Kochia scoparia) [1]; [16]) | Plant response rating, Kochia (Kochia (Kochia scoparia) [1]; [17]) | Plant response rating, Barnyardgrass [2, 16] | Plant response rating, Barnyardgrass [2, 17] | Plant response rating, Pigweed [3, 16] | Plant response rating, Pigweed [3, 17] | Plant response rating, Ryegrass, Italian [4, 16] | Plant response rating, Ryegrass, Italian [4, 17] | Plant response rating, Ragweed [5, 16] | Plant response rating, Ragweed [5, 17] | Plant response rating, Corn (corn (Zea mays); [16]) | Plant response rating, Corn (corn (Zea mays); [17]) | Plant response rating, Foxtail, Giant [6, 16] | Plant response rating, Foxtail, Giant [6, 17] | Plant response rating, Blackgrass [7, 16] | Plant response rating, Blackgrass [7, 17] | Plant response rating, Wheat [8, 16] | Plant response rating, Wheat [8, 17] | Plant response rating, Galium [9, 16] | Plant response rating, Galium [9, 17] | further results
CN1CC(c2ccc(Br)cc2)C(C(=O)Nc2cccc(F)c2F)C1=O (stereo not drawn) [Compound 564] | 80 | 80 | 90 | 90 | 40 | 70 | 60 | 70 | 50 | 60 | 70 | 80 | 90 | 90 | 40 | 70 | 40 | 60 | 70 | 70 | Plant response rating, Kochia (Kochia (Kochia scoparia) [10]): 80; Kochia plant response rating (0 to 100 scale, 0 is no effect, 100 is complete control) (Kochia (Kochia scoparia) [10]): 90; Plant response rating, Barnyardgrass [11]: 90; Barnyardgrass plant response rating (0 to 100 scale, 0 is no effect, 100 is complete control) [11]: 100; Plant response rating, Pigweed [12]: 90; Pigweed plant response rating (0 to 100 scale, 0 is no effect, 100 is complete control) [12]: 90; Plant response rating, Ryegrass, Italian [13]: 40; Ryegrass, Italian plant response rating (0 to 100 scale, 0 is no effect, 100 is complete control) [13]: 90; Plant response rating, Ragweed [14]: 80; Ragweed plant response rating (0 to 100 scale, 0 is no effect, 100 is complete control) [14]: 90; Plant response rating, Foxtail, Giant [15]: 90; Foxtail, Giant plant response rating (0 to 100 scale, 0 is no effect, 100 is complete control) [15]: 100
CN1CC(c2ccc(Br)cc2)C(C(=O)Nc2ccccc2F)C1=O (stereo not drawn) [Compound 563] | 70 | 80 | 90 | 90 | 0 | 40 | 40 | 40 | 0 | 50 | 20 | 50 | 90 | 90 | 40 | 50 | 20 | 40 | 70 | 70 | Plant response rating, Kochia (Kochia (Kochia scoparia) [10]): 70; Kochia plant response rating (0 to 100 scale, 0 is no effect, 100 is complete control) (Kochia (Kochia scoparia) [10]): 80; Plant response rating, Barnyardgrass [11]: 90; Barnyardgrass plant response rating (0 to 100 scale, 0 is no effect, 100 is complete control) [11]: 100; Plant response rating, Pigweed [12]: 70; Pigweed plant response rating (0 to 100 scale, 0 is no effect, 100 is complete control) [12]: 80; Plant response rating, Ryegrass, Italian [13]: 0; Ryegrass, Italian plant response rating (0 to 100 scale, 0 is no effect, 100 is complete control) [13]: 0; Plant response rating, Ragweed [14]: 50; Ragweed plant response rating (0 to 100 scale, 0 is no effect, 100 is complete control) [14]: 60; Plant response rating, Foxtail, Giant [15]: 90; Foxtail, Giant plant response rating (0 to 100 scale, 0 is no effect, 100 is complete control) [15]: 100
CN1CC(c2ccc(OC(F)F)cc2)C(C(=O)Nc2cccc(F)c2F)C1=O (stereo not drawn) [Compound 562] | 70 | 80 | 90 | 90 | 70 | 80 | 70 | 80 | 50 | 60 | 40 | 80 | 90 | 90 | 60 | 70 | 50 | 80 | 60 | 70 | Plant response rating, Kochia (Kochia (Kochia scoparia) [10]): 70; Kochia plant response rating (0 to 100 scale, 0 is no effect, 100 is complete control) (Kochia (Kochia scoparia) [10]): 90; Plant response rating, Barnyardgrass [11]: 90; Barnyardgrass plant response rating (0 to 100 scale, 0 is no effect, 100 is complete control) [11]: 90; Plant response rating, Pigweed [12]: 90; Pigweed plant response rating (0 to 100 scale, 0 is no effect, 100 is complete control) [12]: 90; Plant response rating, Ryegrass, Italian [13]: 60; Ryegrass, Italian plant response rating (0 to 100 scale, 0 is no effect, 100 is complete control) [13]: 90; Plant response rating, Ragweed [14]: 70; Ragweed plant response rating (0 to 100 scale, 0 is no effect, 100 is complete control) [14]: 80; Plant response rating, Foxtail, Giant [15]: 90; Foxtail, Giant plant response rating (0 to 100 scale, 0 is no effect, 100 is complete control) [15]: 90
